# From article PMC10076643, “Design, synthesis and anticancer activity studies of 3-(coumarin-3-yl)-acrolein derivatives: Evidenced by integrating network pharmacology and vitro assay” (Frontiers in Pharmacology, 2023)
# Assays:
# [1] = system: KB (human oral epidermoid carcinoma cell line); experiment: MTT antiproliferative assay, KB; assay type: cell-based
# Text: (§1) All the synthesized compounds were screened for in vitro antiproliferative activity against four human cancer cell lines A549 (human lung cancer cell line), KB (human oral epidermoid carcinoma cell line), Hela (human cervical carcinoma cell line), MCF-7 (human breast cancer cell line) and two human normal cell lines HUVEC (human umbilical vein endothelial cell) and LO2 (human normal hepatocytes) through the 3-(4,5-dimethyl-2-thiazolyl)-2,5-diphenyl-2-H-tetrazolium bromide (MTT) assay.
# (§2) Non-small-cell lung cancer (A549), oral epidermoid carcinoma (KB), cervical cancer (Hela) and breast cancer (MCF-7) cells were purchased from the American Type Culture Collection (ATCC, America). Human umbilical vein endothelial cell (HUVEC) and human normal hepatocytes (LO2) cells were provided by Guangzhou Medical University (Guangzhou, China). A549 and KB cells were cultured in RMPI-1640 medium (Gibco, America). Hela, MCF-7 and LO2 cells were cultured in DMEM medium (Gibco, America). HUVEC cells were cultured in Ham’s F-12K medium (Gibco, America). All the mediums were supplemented with 10% fetal bovine serum (FBS) (BI, State of Israel), 100 U/mL penicillin and 100 μg/mL streptomycin (Gibco, America), and all the cells were incubated in a sterile incubator at 37°C in an environment of 5% CO2. The tested compounds were dissolved in dimethyl sulfoxide (DMSO) at a concentration of 10 mM, and then diluted into different concentration of solutions by culture medium. The final concentration of DMSO was <0.01% (v/v) in all drug treatment groups to avoid the toxicity in the biological system. Untreated cells were used as a blank control and 5-fluorouracil treated cells were used as a positive control.
# (§3) The incubated tumor cells were planted into 96-well plates (4×10^3 cells/well). After 24 h, the cells were adherent to the wall and treated with the compound 6e in different concentrations (0.78, 1.56, 3.12, 6.25, 12.50, 25.00, and 50.00 μM) for 72 h. Afterwards, the medium was supplemented with 10 µL MTT solution. After 4 h, the culture medium was removed and 100 µL DMSO was added. The absorbance was determined at the wavelength of 540 nm and 655 nm using a microplate reader (BioTek Epoch, America). The results were collected from three independent experiments. The IC50 was then calculated by using GraphPad Prism Software (version 7.0) and non-linear regression (curve fit).
# [2] = system: Hela (human cervical carcinoma cell line); experiment: MTT antiproliferative assay, Hela; assay type: cell-based; settings: 72 h
# Text: as §1, §2, §3
# [3] = system: HUVEC (human umbilical vein endothelial cell); experiment: MTT antiproliferative assay, HUVEC normal cells; assay type: cell-based; settings: 72 h
# Text: as §1, §2, §3
# KB cells [4] = experiment: Transwell migration assay; assay type: cell-based, human; settings: 2 IC50, 48 h
# Experimental: Wound healing assay and transwell assay were performed to investigate the effect of compound 6e on the migratory capability of KB cells.
# Initially, KB cells (5×10^4 cells/well) were suspended in 200 μL of the FBS-free medium. Each upper chamber contained the vehicle and various concentrations of compound 6e (0.5 IC50, IC50, 2 IC50). Each lower chamber was filled with 600 μL of medium containing 10% FBS. After incubation at 37°C for 48 h, the cells upon the transwell membrane were removed with a cotton tip. The cells trapped on the bottom side of the membrane were fixed with methanol for 1 h and stained with crystal violet solution for 2 h. Subsequently, the chambers thoroughly washed with PBS. The migrated cells were then imaged with the inverted fluorescence microscope (Leica DMi8, Germany) and counted with ImageJ software for three independent fields randomly.
# KB cells [5] = experiment: Annexin V-FITC/PI dual staining apoptosis assay (flow cytometry); assay type: cell-based, human
# Experimental: To investigate whether compound 6e could induce cell apoptosis, KB cells were treated with compound 6e in different concentrations for 48 h and the Annexin V-FITC/PI dual staining assay was carried out flow cytometry.
# KB cells (5×10^5 cells/well) were seeded into six-well plates. […] Afterwards, cells were collected, washed twice with cold PBS. Then the treated cells were resuspended with 400 μL of 1X Annexin V binding buffer and mixed with 5 μL FITC and 5 μL PI (Annexin V-FITC Apoptosis Analysis Kit, Tianjing), and incubated at room temperature in the dark for 5 min. After the incubation, the samples were immediately analyzed by a Beckman Flow Cytometer.
# caspase-3 in KB cells = experiment: Western blot, caspase-3; assay type: cell-based, human; settings: 24 h
# Text: (§4) Based on the results of network pharmacology, the key proteins related to PI3K/AKT pathway were detected by Western blotting to explore the antitumor mechanism of compound 6e. […] Such an inconsistency might be due to a compensatory increase in PI3K level after the reduction of AKT phosphorylation level. Additionally, the active-caspase 3 protein, anti-apoptosis protein Bcl-2 and pro-apoptosis protein Bax were further analyzed. Caspase-3 normally exists in the cytoplasm as zymogen. During the early stage of apoptosis, caspase-3 (32 KD) is cleaved to the active 17-kD caspase-3 fragment, which is responsible for morphological and biochemical changes in apoptosis. Bcl-2 and Bax are the […] located on the mitochondrial membrane and capable of controlling the MMP (ΔΨm) and the activation of caspase cascade.
# (§5) A total of 4 × 10^5 KB cells were seeded into 6-well and grown for overnight. Then the cells adherent to the wall were treated with compound 6e in different concentrations (0, 0.40, 0.80, 1.60 μM) for 24 h. After that, cells were collected, SDS lysate, 100X protease inhibitor and 50X phosphorylation inhibitor were added in a certain proportion to lyse the cells. The protein content was determined by BCA reagent (Beyotime, China) according to the standard curve. […]
# Bcl-2 in KB cells = experiment: Western blot, Bcl-2; assay type: cell-based, human; settings: 0.40 μM, 24 h
# Text: as §4, §5
compound,measurement,setting,value
"O=CC=C(Cl)c1cc2ccc(OCc3ccccc3)cc2oc1=O [Compound 6e, 3-(7-(Benzyloxy)-2-oxo-2H-chromen-3-yl)-3-chloroacrylaldehyde]",IC50,"[1]; Homo sapiens, MTT, 72 h",390 ± 70 nM
same,antiproliferative activity higher than 5-FU,"[1]; KB cells, relative to 5-FU",15 fold
same,IC50 against KB cells lower than that of HUVECs (selectivity),[1]; KB vs HUVEC,65 fold
same,IC50 against KB cells lower than that of LO2 cells (selectivity),[1]; KB vs LO2,129 fold
same,IC50,[2],1820 ± 220 nM
same,IC50,[3],25260 ± 200 nM
same,number of migration cells reduced compared with the control group,KB cells [4],approximately 93%
same,apoptotic rate in the early stage (Q1-LR),"KB cells [5]; 0.5 IC50, 48 h",6.99%
same,late apoptotic rate (Q1-UR),"KB cells [5]; 0.5 IC50, 48 h",5.55%
same,total apoptosis rate,"KB cells [5]; 0.5 IC50, 48 h",12.54%
same,apoptotic rate in the early stage (Q1-LR),"KB cells [5]; 2 IC50, 48 h",13.11%
same,late apoptotic rate (Q1-UR),"KB cells [5]; 2 IC50, 48 h",7.22%
same,total apoptosis rate,"KB cells [5]; 2 IC50, 48 h",20.33%
same,apoptotic rate in the early stage (Q1-LR),"KB cells [5]; IC50, 48 h",6.69%
same,late apoptotic rate (Q1-UR),"KB cells [5]; IC50, 48 h",7.30%
same,total apoptosis rate,"KB cells [5]; IC50, 48 h",13.99%
same,ratio of cleaved caspase-3 to caspase-3,caspase-3 in KB cells; 0.80 μM,increased
same,expression of the cleaved 17-kD caspase-3,caspase-3 in KB cells; 1.60 μM,upregulated
same,expression of Bcl-2 compared with the control group,Bcl-2 in KB cells,visibly decreased
same,proportion of Bcl-2 to Bax,Bcl-2 in KB cells,decrease
